Patent publication EP3352763B1 (priority 2015, dated 2017)

How the values were obtained:
[1] = test system: Influenzavirus A/Regensburg/D6/2009/H1N1; assay: Screening of antiviral effect of test substances (Fig. 1); assay type: cell-based; details: for antivirale Aktivität: Fig. 1, result in words
Hantaviren = assay type: cell-based
[2] = test system: A/Regensburg/D6/2009/H1N1; assay type: cell-based, Influenzaviren; details: TC50/EC50, A/Regensburg/D6/2009/H1N1
in vitro [3] = details: dog, mdck
A/Victoria/3/75/H3N2 = assay type: cell-based, Influenzaviren
[4] = test system: A/Mississippi/3/2001/H1N1; assay type: cell-based, Influenzaviren; details: TC50/EC50, A/Mississippi/3/2001/H1N1
in vitro [5] = details: monkey, vero cells
[6] = test system: Influenza-Viren vom Stamm A/Regensburg/D6/2009/H1N1; assay type: cell-based

Compound	antivirale Aktivität [1]	Wirkung gegen Hantaviren (Hantaviren)	Selektivitätsindex (S.I.) [2]	CC50 (in vitro [3]) [µM]	Selektivitätsindex (S.I.) (A/Victoria/3/75/H3N2)	TC50 (A549-Zellen) [µM]	Selektivitätsindex (S.I.) [4]	Reduktion der Viruslast ([1]; Fig. 1, screening of substances) [%]	CC50 (in vitro [5]) [µM]	antivirale Wirkung (Reduktion der Viruslast) [6] [%]	antiviraler Effekt [6]	Reduktion der Viruslast ([6]; pre-incubation of the viruses with Tilirosid)
O=C(O)c1cc(O)c(O)c(O)c1 [Gallussäure, reference compound]	antivirale Aktivität											
O=C(/C=C/c1ccc(O)cc1)OC[C@H]1O[C@@H](Oc2c(-c3ccc(O)cc3)oc3cc(O)cc(O)c3c2=O)[C@H](O)[C@@H](O)[C@@H]1O [Tilirosid, Kaempferol-3-(6"-trans-p-coumaroyl)glucosid]	höchste antivirale Aktivität	nicht gegen Hantaviren wirkt	433	932	134	1.862	2.906	> 90	126	> 90	keinen antiviralen Effekt	keiner Reduktion der Viruslast
